Reference: PubChem BioAssay (NCI)
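Following 48 hours of exposure in 96-well plates, responses at five concentrations were used to interpolate endpoints linearly. TGI denotes the concentration required for complete inhibition of growth.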

Tests used:
Experiment in all cases: DTP human tumour cell line panel, 48 h
786-0 renal = test system: 786-0 renal
A498 renal = test system: A498 renal
A549 NSCLC = test system: A549 NSCLC
ACHN renal = test system: ACHN renal
BT-549 breast = test system: BT-549 breast
CAKI-1 renal = test system: CAKI-1 renal
COLO 205 colon = test system: COLO 205 colon
DU-145 prostate = test system: DU-145 prostate
EKVX NSCLC = test system: EKVX NSCLC
HCC-2998 colon = test system: HCC-2998 colon
HCT-116 colon = test system: HCT-116 colon
HCT-15 colon = test system: HCT-15 colon
HL-60(TB) leukemia = test system: HL-60(TB) leukemia
HOP-62 NSCLC = test system: HOP-62 NSCLC
HOP-92 NSCLC = test system: HOP-92 NSCLC
HS 578T breast = test system: HS 578T breast
HT29 colon = test system: HT29 colon
IGROV1 ovarian = test system: IGROV1 ovarian
K-562 leukemia = test system: K-562 leukemia
KM12 colon = test system: KM12 colon
LOX IMVI melanoma = test system: LOX IMVI melanoma
M14 melanoma = test system: M14 melanoma
MALME-3M melanoma = test system: MALME-3M melanoma
MCF7 breast = test system: MCF7 breast
MDA-MB-231 breast = test system: MDA-MB-231 breast
MDA-MB-435 = test system: MDA-MB-435
MDA-N = test system: MDA-N
NCI-H226 lung = test system: NCI-H226 lung
NCI-H23 lung = test system: NCI-H23 lung
NCI-H460 lung = test system: NCI-H460 lung
NCI-H522 lung = test system: NCI-H522 lung
NCI/ADR-RES ovarian = test system: NCI/ADR-RES ovarian
OVCAR-3 ovarian = test system: OVCAR-3 ovarian
OVCAR-4 ovarian = test system: OVCAR-4 ovarian
OVCAR-5 ovarian = test system: OVCAR-5 ovarian
OVCAR-8 ovarian = test system: OVCAR-8 ovarian
PC-3 prostate = test system: PC-3 prostate
RPMI-8226 leukemia = test system: RPMI-8226 leukemia
RXF 393 renal = test system: RXF 393 renal
SF-268 CNS = test system: SF-268 CNS
SF-295 CNS = test system: SF-295 CNS
SF-539 CNS = test system: SF-539 CNS
SK-MEL-2 melanoma = test system: SK-MEL-2 melanoma
SK-MEL-28 melanoma = test system: SK-MEL-28 melanoma
SK-MEL-5 melanoma = test system: SK-MEL-5 melanoma
SK-OV-3 ovarian = test system: SK-OV-3 ovarian
SN12C renal = test system: SN12C renal
SNB-19 CNS = test system: SNB-19 CNS
SNB-75 CNS = test system: SNB-75 CNS
SR leukemia = test system: SR leukemia
SW-620 colon = test system: SW-620 colon
T-47D breast = test system: T-47D breast
TK-10 renal = test system: TK-10 renal
U251 CNS = test system: U251 CNS
UACC-257 melanoma = test system: UACC-257 melanoma
UACC-62 melanoma = test system: UACC-62 melanoma
UO-31 renal = test system: UO-31 renal
CCRF-CEM leukemia = test system: CCRF-CEM leukemia
MOLT-4 leukemia = test system: MOLT-4 leukemia

SMILES: O=C(Oc1ccc(S(=O)(=O)F)cc1F)c1ccccc1Cl
- TGI (786-0 renal): > 100 µM
- TGI (A498 renal): > 100 µM
- TGI (A549 NSCLC): > 100 µM
- TGI (ACHN renal): > 100 µM
- TGI (BT-549 breast): > 100 µM
- TGI (CAKI-1 renal): > 100 µM
- TGI (COLO 205 colon): 44.6 µM
- TGI (DU-145 prostate): > 100 µM
- TGI (EKVX NSCLC): 72.3 µM
- TGI (HCC-2998 colon): > 100 µM
- TGI (HCT-116 colon): > 100 µM
- TGI (HCT-15 colon): > 100 µM
- TGI (HL-60(TB) leukemia): > 100 µM
- TGI (HOP-62 NSCLC): > 100 µM
- TGI (HOP-92 NSCLC): 65.1 µM
- TGI (HS 578T breast): 65.2 µM
- TGI (HT29 colon): 72.9 µM
- TGI (IGROV1 ovarian): > 100 µM
- TGI (K-562 leukemia): > 100 µM
- TGI (KM12 colon): 60.9 µM
- TGI (LOX IMVI melanoma): > 100 µM
- TGI (M14 melanoma): > 100 µM
- TGI (MALME-3M melanoma): 86.4 µM
- TGI (MCF7 breast): 83.9 µM
- TGI (MDA-MB-231 breast): 58 µM
- TGI (MDA-MB-435): 74.6 µM
- TGI (MDA-N): > 100 µM
- TGI (NCI-H226 lung): > 100 µM
- TGI (NCI-H23 lung): 53.9 µM
- TGI (NCI-H460 lung): 70.5 µM
- TGI (NCI-H522 lung): 42 µM
- TGI (NCI/ADR-RES ovarian): > 100 µM
- TGI (OVCAR-3 ovarian): 75.6 µM
- TGI (OVCAR-4 ovarian): 94.5 µM
- TGI (OVCAR-5 ovarian): > 100 µM
- TGI (OVCAR-8 ovarian): > 100 µM
- TGI (PC-3 prostate): > 100 µM
- TGI (RPMI-8226 leukemia): 45.6 µM
- TGI (RXF 393 renal): 64.5 µM
- TGI (SF-268 CNS): > 100 µM
- TGI (SF-295 CNS): 89.4 µM
- TGI (SF-539 CNS): 62.1 µM
- TGI (SK-MEL-2 melanoma): > 100 µM
- TGI (SK-MEL-28 melanoma): > 100 µM
- TGI (SK-MEL-5 melanoma): 31.1 µM
- TGI (SK-OV-3 ovarian): > 100 µM
- TGI (SN12C renal): > 100 µM
- TGI (SNB-19 CNS): 87.2 µM
- TGI (SNB-75 CNS): 74.2 µM
- TGI (SR leukemia): 55.8 µM
- TGI (SW-620 colon): > 100 µM
- TGI (T-47D breast): 84.3 µM
- TGI (TK-10 renal): > 100 µM
- TGI (U251 CNS): > 100 µM
- TGI (UACC-257 melanoma): 78.8 µM
- TGI (UACC-62 melanoma): > 100 µM
- TGI (UO-31 renal): 40 µM

SMILES: S=C(S)N1CCN(c2cccc(Cl)c2)CC1
- TGI (786-0 renal): > 100 µM
- TGI (A498 renal): > 100 µM
- TGI (A549 NSCLC): > 100 µM
- TGI (ACHN renal): > 100 µM
- TGI (BT-549 breast): > 100 µM
- TGI (CAKI-1 renal): > 100 µM
- TGI (CCRF-CEM leukemia): > 100 µM
- TGI (COLO 205 colon): > 100 µM
- TGI (DU-145 prostate): > 100 µM
- TGI (EKVX NSCLC): > 100 µM
- TGI (HCC-2998 colon): > 100 µM
- TGI (HCT-116 colon): > 100 µM
- TGI (HCT-15 colon): > 100 µM
- TGI (HL-60(TB) leukemia): > 100 µM
- TGI (HOP-62 NSCLC): > 100 µM
- TGI (HOP-92 NSCLC): > 100 µM
- TGI (HS 578T breast): > 100 µM
- TGI (HT29 colon): > 100 µM
- TGI (IGROV1 ovarian): > 100 µM
- TGI (K-562 leukemia): > 100 µM
- TGI (KM12 colon): > 100 µM
- TGI (LOX IMVI melanoma): > 100 µM
- TGI (M14 melanoma): > 100 µM
- TGI (MALME-3M melanoma): > 100 µM
- TGI (MCF7 breast): > 100 µM
- TGI (MDA-MB-231 breast): > 100 µM
- TGI (MDA-MB-435): > 100 µM
- TGI (MDA-N): > 100 µM
- TGI (MOLT-4 leukemia): > 100 µM
- TGI (NCI-H23 lung): > 100 µM
- TGI (NCI-H522 lung): > 100 µM
- TGI (NCI/ADR-RES ovarian): > 100 µM
- TGI (OVCAR-3 ovarian): > 100 µM
- TGI (OVCAR-5 ovarian): > 100 µM
- TGI (OVCAR-8 ovarian): > 100 µM
- TGI (PC-3 prostate): > 100 µM
- TGI (RPMI-8226 leukemia): > 100 µM
- TGI (RXF 393 renal): > 100 µM
- TGI (SF-268 CNS): > 100 µM
- TGI (SF-295 CNS): > 100 µM
- TGI (SF-539 CNS): > 100 µM
- TGI (SK-MEL-2 melanoma): > 100 µM
- TGI (SK-MEL-28 melanoma): > 100 µM
- TGI (SK-MEL-5 melanoma): > 100 µM
- TGI (SN12C renal): > 100 µM
- TGI (SNB-19 CNS): > 100 µM
- TGI (SNB-75 CNS): > 100 µM
- TGI (SR leukemia): > 100 µM
- TGI (SW-620 colon): > 100 µM
- TGI (T-47D breast): > 100 µM
- TGI (TK-10 renal): > 100 µM
- TGI (U251 CNS): > 100 µM
- TGI (UACC-257 melanoma): > 100 µM
- TGI (UACC-62 melanoma): > 100 µM
- TGI (UO-31 renal): > 100 µM

SMILES: OC1(c2ccccc2)c2ccccc2NC2=NCCN21 (stereo not drawn)
- TGI (786-0 renal): > 100 µM
- TGI (A498 renal): > 100 µM
- TGI (A549 NSCLC): > 100 µM
- TGI (ACHN renal): > 100 µM
- TGI (BT-549 breast): > 100 µM
- TGI (CAKI-1 renal): > 100 µM
- TGI (COLO 205 colon): 99.6 µM
- TGI (DU-145 prostate): > 100 µM
- TGI (EKVX NSCLC): > 100 µM
- TGI (HCC-2998 colon): 31.3 µM
- TGI (HCT-116 colon): > 100 µM
- TGI (HCT-15 colon): > 100 µM
- TGI (HL-60(TB) leukemia): > 100 µM
- TGI (HOP-62 NSCLC): > 100 µM
- TGI (HOP-92 NSCLC): > 100 µM
- TGI (HS 578T breast): > 100 µM
- TGI (HT29 colon): > 100 µM
- TGI (IGROV1 ovarian): > 100 µM
- TGI (KM12 colon): > 100 µM
- TGI (LOX IMVI melanoma): > 100 µM
- TGI (M14 melanoma): > 100 µM
- TGI (MCF7 breast): > 100 µM
- TGI (MDA-MB-231 breast): > 100 µM
- TGI (MDA-MB-435): > 100 µM
- TGI (MDA-N): > 100 µM
- TGI (MOLT-4 leukemia): 52.2 µM
- TGI (NCI-H226 lung): > 100 µM
- TGI (NCI-H23 lung): > 100 µM
- TGI (NCI-H460 lung): > 100 µM
- TGI (NCI-H522 lung): > 100 µM
- TGI (NCI/ADR-RES ovarian): > 100 µM
- TGI (OVCAR-3 ovarian): > 100 µM
- TGI (OVCAR-4 ovarian): > 100 µM
- TGI (OVCAR-5 ovarian): > 100 µM
- TGI (OVCAR-8 ovarian): > 100 µM
- TGI (PC-3 prostate): > 100 µM
- TGI (RPMI-8226 leukemia): 45.8 µM
- TGI (RXF 393 renal): > 100 µM
- TGI (SF-268 CNS): > 100 µM
- TGI (SF-295 CNS): > 100 µM
- TGI (SF-539 CNS): > 100 µM
- TGI (SK-MEL-2 melanoma): > 100 µM
- TGI (SK-MEL-28 melanoma): > 100 µM
- TGI (SK-MEL-5 melanoma): > 100 µM
- TGI (SK-OV-3 ovarian): > 100 µM
- TGI (SN12C renal): > 100 µM
- TGI (SNB-19 CNS): > 100 µM
- TGI (SNB-75 CNS): > 100 µM
- TGI (SR leukemia): 45 µM
- TGI (SW-620 colon): > 100 µM
- TGI (T-47D breast): > 100 µM
- TGI (TK-10 renal): > 100 µM
- TGI (U251 CNS): > 100 µM
- TGI (UACC-257 melanoma): > 100 µM
- TGI (UACC-62 melanoma): > 100 µM
- TGI (UO-31 renal): > 100 µM
